ChEMBL document CHEMBL4725412, “Augmenting the Activity of Macrolide Adjuvants against Acinetobacter baumannii” (2020)

How the values were obtained:
Assay type in all cases: functional
Acinetobacter baumannii [1] = experiment: Antibacterial activity against Acinetobacter baumannii 3785 assessed as reduction in microbial growth incubated for 16 hrs by broth microdilution method
Acinetobacter baumannii [2] = experiment: Antibacterial activity against Acinetobacter baumannii 4490 assessed as reduction in microbial growth incubated for 16 hrs by broth microdilution method
Acinetobacter baumannii [3] = experiment: Antibacterial activity against Acinetobacter baumannii 4448 assessed as reduction in microbial growth incubated for 16 hrs by broth microdilution method
Acinetobacter baumannii [4] = experiment: Antibacterial activity against Acinetobacter baumannii 4025 assessed as reduction in microbial growth incubated for 16 hrs by broth microdilution method
Acinetobacter baumannii [5] = experiment: Potentiation of clarithromycin-induced antibacterial activity against Acinetobacter baumannii 5711 assessed as fold reduction in clarithromycin MIC at 7.5 uM incubated for 16 hrs by broth microdilution method
Acinetobacter baumannii [6] = experiment: Antibacterial activity against Acinetobacter baumannii 4027 assessed as reduction in microbial growth incubated for 16 hrs by broth microdilution method
Acinetobacter baumannii [7] = experiment: Antibacterial activity against Acinetobacter baumannii 5711 assessed as reduction in microbial growth incubated for 16 hrs by broth microdilution method
Acinetobacter baumannii [8] = experiment: Antibacterial activity against Acinetobacter baumannii 8967 assessed as reduction in microbial growth incubated for 16 hrs by broth microdilution method
Acinetobacter baumannii [9] = experiment: Antibacterial activity against Acinetobacter baumannii 5197 assessed as reduction in microbial growth incubated for 16 hrs by broth microdilution method
Acinetobacter baumannii [10] = experiment: Potentiation of clarithromycin-induced antibacterial activity against Acinetobacter baumannii 4878 assessed as fold reduction in clarithromycin MIC at 7.5 uM incubated for 16 hrs by broth microdilution method
Acinetobacter baumannii [11] = experiment: Potentiation of clarithromycin-induced antibacterial activity against Acinetobacter baumannii 4269 assessed as fold reduction in clarithromycin MIC at 7.5 uM incubated for 16 hrs by broth microdilution method
Acinetobacter baumannii [12] = experiment: Potentiation of clarithromycin-induced antibacterial activity against Acinetobacter baumannii AB5075 assessed as fold reduction in clarithromycin MIC at 5 uM incubated for 16 hrs in presence of clarithromycin by broth microdilution method
Acinetobacter baumannii [13] = experiment: Potentiation of clarithromycin-induced antibacterial activity against Acinetobacter baumannii AB5075 assessed as clarithromycin MIC at 5 uM incubated for 16 hrs by broth microdilution method (reference value: […] ug/ml)
Acinetobacter baumannii [14] = experiment: Antibacterial activity against Acinetobacter baumannii 4498 assessed as reduction in microbial growth incubated for 16 hrs by broth microdilution method
Acinetobacter baumannii [15] = experiment: Antibacterial activity against Acinetobacter baumannii 5001 assessed as reduction in microbial growth incubated for 16 hrs by broth microdilution method
Acinetobacter baumannii [16] = experiment: Antibacterial activity against Acinetobacter baumannii 4052 assessed as reduction in microbial growth incubated for 16 hrs by broth microdilution method
Acinetobacter baumannii [17] = experiment: Potentiation of clarithromycin-induced antibacterial activity against Acinetobacter baumannii 4026 assessed as fold reduction in clarithromycin MIC at 7.5 uM incubated for 16 hrs by broth microdilution method
Acinetobacter baumannii [18] = experiment: Antibacterial activity against Acinetobacter baumannii 3806 assessed as reduction in microbial growth incubated for 16 hrs by broth microdilution method
Acinetobacter baumannii [19] = experiment: Potentiation of clarithromycin-induced antibacterial activity against Acinetobacter baumannii 3560 assessed as fold reduction in clarithromycin MIC at 7.5 uM incubated for 16 hrs by broth microdilution method
Acinetobacter baumannii [20] = experiment: Antibacterial activity against Acinetobacter baumannii 4878 assessed as reduction in microbial growth incubated for 16 hrs by broth microdilution method
Acinetobacter baumannii [21] = experiment: Potentiation of clarithromycin-induced antibacterial activity against Acinetobacter baumannii 5001 assessed as fold reduction in clarithromycin MIC at 7.5 uM incubated for 16 hrs by broth microdilution method
Acinetobacter baumannii [22] = experiment: Potentiation of clarithromycin-induced antibacterial activity against Acinetobacter baumannii 4857 assessed as fold reduction in clarithromycin MIC at 7.5 uM incubated for 16 hrs by broth microdilution method
Acinetobacter baumannii [23] = experiment: Antibacterial activity against Acinetobacter baumannii 5256 assessed as reduction in microbial growth incubated for 16 hrs by broth microdilution method
Acinetobacter baumannii [24] = experiment: Antibacterial activity against Acinetobacter baumannii 4795 assessed as reduction in microbial growth incubated for 16 hrs by broth microdilution method
Acinetobacter baumannii [25] = experiment: Potentiation of clarithromycin-induced antibacterial activity against Acinetobacter baumannii 4456 assessed as fold reduction in clarithromycin MIC at 7.5 uM incubated for 16 hrs by broth microdilution method
Acinetobacter baumannii [26] = experiment: Potentiation of clarithromycin-induced antibacterial activity against Acinetobacter baumannii 3927 assessed as fold reduction in clarithromycin MIC at 7.5 uM incubated for 16 hrs by broth microdilution method
Acinetobacter baumannii [27] = experiment: Potentiation of clarithromycin-induced antibacterial activity against Acinetobacter baumannii 5197 assessed as fold reduction in clarithromycin MIC at 7.5 uM incubated for 16 hrs by broth microdilution method
Acinetobacter baumannii [28] = experiment: Potentiation of clarithromycin-induced antibacterial activity against Acinetobacter baumannii 8967 assessed as fold reduction in clarithromycin MIC at 7.5 uM incubated for 16 hrs by broth microdilution method
Acinetobacter baumannii [29] = experiment: Antibacterial activity against Acinetobacter baumannii 4857 assessed as reduction in microbial growth incubated for 16 hrs by broth microdilution method
Acinetobacter baumannii [30] = experiment: Antibacterial activity against Acinetobacter baumannii AB5075 assessed as reduction in microbial growth incubated for 16 hrs by broth microdilution method
Acinetobacter baumannii [31] = experiment: Potentiation of clarithromycin-induced antibacterial activity against Acinetobacter baumannii AB5075 assessed as clarithromycin MIC at 7.5 uM incubated for 16 hrs by broth microdilution method (reference value: […] ug/ml)
Acinetobacter baumannii [32] = experiment: Potentiation of clarithromycin-induced antibacterial activity against Acinetobacter baumannii 4991 assessed as fold reduction in clarithromycin MIC at 7.5 uM incubated for 16 hrs by broth microdilution method
Acinetobacter baumannii [33] = experiment: Antibacterial activity against Acinetobacter baumannii 4957 assessed as reduction in microbial growth incubated for 16 hrs by broth microdilution method
Acinetobacter baumannii [34] = experiment: Potentiation of clarithromycin-induced antibacterial activity against Acinetobacter baumannii 3806 assessed as fold reduction in clarithromycin MIC at 7.5 uM incubated for 16 hrs by broth microdilution method
Acinetobacter baumannii [35] = experiment: Potentiation of clarithromycin-induced antibacterial activity against Acinetobacter baumannii 4027 assessed as fold reduction in clarithromycin MIC at 7.5 uM incubated for 16 hrs by broth microdilution method
Acinetobacter baumannii [36] = experiment: Antibacterial activity against Acinetobacter baumannii 4991 assessed as reduction in microbial growth incubated for 16 hrs by broth microdilution method
Acinetobacter baumannii [37] = experiment: Antibacterial activity against Acinetobacter baumannii 4026 assessed as reduction in microbial growth incubated for 16 hrs by broth microdilution method
Acinetobacter baumannii [38] = experiment: Potentiation of clarithromycin-induced antibacterial activity against Acinetobacter baumannii 4448 assessed as fold reduction in clarithromycin MIC at 7.5 uM incubated for 16 hrs by broth microdilution method
Acinetobacter baumannii [39] = experiment: Antibacterial activity against Acinetobacter baumannii 3927 assessed as reduction in microbial growth incubated for 16 hrs by broth microdilution method
Acinetobacter baumannii [40] = experiment: Potentiation of clarithromycin-induced antibacterial activity against Acinetobacter baumannii 4490 assessed as fold reduction in clarithromycin MIC at 7.5 uM incubated for 16 hrs by broth microdilution method
Acinetobacter baumannii [41] = experiment: Potentiation of clarithromycin-induced antibacterial activity against Acinetobacter baumannii 5256 assessed as fold reduction in clarithromycin MIC at 7.5 uM incubated for 16 hrs by broth microdilution method

- MIC (Acinetobacter baumannii [1]): 25 µM
- MIC (Acinetobacter baumannii [2]): 25 µM
- MIC (Acinetobacter baumannii [3]): 25 µM
- MIC (Acinetobacter baumannii [4]): 25 µM
- MIC (Acinetobacter baumannii [6]): 25 µM
- MIC (Acinetobacter baumannii [7]): 25 µM
- MIC (Acinetobacter baumannii [8]): 25 µM
- MIC (Acinetobacter baumannii [9]): 25 µM
- MIC (Acinetobacter baumannii [13]): 4 µg/mL
- MIC (Acinetobacter baumannii [14]): 25 µM
- MIC (Acinetobacter baumannii [15]): 25 µM
- MIC (Acinetobacter baumannii [16]): 25 µM
- MIC (Acinetobacter baumannii [18]): 25 µM
- MIC (Acinetobacter baumannii [20]): 25 µM
- MIC (Acinetobacter baumannii [23]): 25 µM
- MIC (Acinetobacter baumannii [24]): 25 µM
- MIC (Acinetobacter baumannii [29]): 25 µM
- MIC (Acinetobacter baumannii [30]): 50 µM
- MIC (Acinetobacter baumannii [31]): 0.25 µg/mL
- MIC (Acinetobacter baumannii [33]): 25 µM
- MIC (Acinetobacter baumannii [36]): 25 µM
- MIC (Acinetobacter baumannii [37]): 25 µM
- MIC (Acinetobacter baumannii [39]): 25 µM
Compound: Cl.Nc1nc(-c2ccc(NC(=O)Nc3cc(Br)cc(Br)c3)cc2)c[nH]1
- fold change (FC) (Acinetobacter baumannii [5]): 16
- fold change (FC) (Acinetobacter baumannii [10]): 16
- fold change (FC) (Acinetobacter baumannii [11]): 16
- fold change (FC) (Acinetobacter baumannii [12]): 8
- fold change (FC) (Acinetobacter baumannii [17]): 16
- fold change (FC) (Acinetobacter baumannii [19]): 16
- fold change (FC) (Acinetobacter baumannii [21]): 16
- fold change (FC) (Acinetobacter baumannii [22]): 16
- fold change (FC) (Acinetobacter baumannii [25]): 16
- fold change (FC) (Acinetobacter baumannii [26]): 16
- fold change (FC) (Acinetobacter baumannii [27]): 16
- fold change (FC) (Acinetobacter baumannii [28]): 16
- fold change (FC) (Acinetobacter baumannii [32]): 16
- fold change (FC) (Acinetobacter baumannii [34]): 16
- fold change (FC) (Acinetobacter baumannii [35]): 16
- fold change (FC) (Acinetobacter baumannii [38]): 16
- fold change (FC) (Acinetobacter baumannii [40]): 16
- fold change (FC) (Acinetobacter baumannii [41]): 16
